According to patent US9795695B2, “Process for the preparation of gadobenate dimeglumine complex in a solid form” (BRACCO IMAGING S.p.A., priority 2009, dated 2017):

Assay: dissolution of the solid form in water
Format: physicochemical
Conditions: for time for dissolution in water: room temperature

CNC[C@H](O)[C@@H](O)[C@H](O)[C@H](O)CO.CNC[C@H](O)[C@@H](O)[C@H](O)[C@H](O)CO.O=C([O-])CN(CCN(CC(=O)[O-])CC(=O)O)CCN(CC(=O)O)C(COCc1ccccc1)C(=O)[O-].[Gd+3] (stereo not shown) [Comparative Example 2a, gadobenate dimeglumine]
ease of dissolution (in words) (aqueous solution): difficult to collect and, in case, to re-dissolve

CNC[C@H](O)[C@@H](O)[C@H](O)[C@H](O)CO.CNC[C@H](O)[C@@H](O)[C@H](O)[C@H](O)CO.O=C([O-])CN(CCN(CC(=O)[O-])CC(=O)O)CCN(CC(=O)O)C(COCc1ccccc1)C(=O)[O-].[Gd+3] (stereo not shown) [gadobenate dimeglumine]
water required to dissolve 1 g of product (per 1 g of product, room temperature (20° C. to 30° C.)): less than 1 mL | time for dissolution in water: few seconds | time for dissolution in water (listed as powdered gadobenate): less than one minute
